Six compounds from patent US8835644B2, “Broad spectrum benzothiophene-nitrothiazolide and other antimicrobials” (University of Virginia Patent Foundation, priority 2009, dated 2014) can be followed below.

In brackets after ≈: the same amount, converted by molar mass. Read-outs that look alike come from different tables or passages of the source.

One assay has as its system MRSA. Put plainly: MIC testing by broth dilution, MRSA. In kind it is cell-based, Staphylococcus aureus. Put shortly: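 Values are broth-dilution MICs, defined as the well showing no growth on visual reading after 24 h; the tested range was 32 to 0.06 μg/ml, in organism-specific media (LB, Trypticase Soy, Brain Heart Infusion). The C. difficile entries come instead from anaerobic Kirby-Bauer disk zones, normalised to NTZ.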
(In general: Broth dilution looks for growth in wells or tubes with falling amounts of substance.)

For a further assay, the system named is C. jejuni. Put plainly: MIC testing by broth dilution, C. jejuni. Format: cell-based, Campylobacter jejuni. Put shortly: (§1)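 Planktonic E. coli (LB) and S. epidermidis (Trypticase Soy), plus C. jejuni (Brain Heart Infusion), were exposed to a dilution series starting at 32 μg/ml. The C. difficile values are anaerobic zone ratios against NTZ.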
Another assay has as its system S. epidermidis. Description: MIC testing by broth dilution, S. epidermidis plank. In kind it is cell-based, Staphylococcus epidermidis. Put shortly: as §1
The next assay relates to H. pylori. Put plainly: MIC testing by broth dilution, H. pylori. Format: cell-based, Helicobacter pylori. The method in brief:
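Helicobacter pylori was tested using a standard broth dilution method in 96 well microplates, each well holding a standard dilution of the organism in 100 microliters of Brain Heart Infusion. Compounds started at 32 μg/ml in 200 microliters in the first well and were serially diluted from 32 to 0.06. Wells were read visually at 24 h, and the MIC was the well with no growth.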

The next assay concerns E. coli. Description: MIC testing by broth dilution, E. coli plank. Format: cell-based, Escherichia coli. Put shortly: as §1
In a further assay the test system is E. coli biofilm. Put plainly: E. coli biofilm assay (activity tables). Format: cell-based, Escherichia coli. The method in brief: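 E. coli strain 042 inoculated 1:100 with NTZ-containing medium and grown statically at 37 °C for 24 h. Growth measured by turbidity or plate counts (cfu/ml); biofilm stained with 0.5% crystal violet and read at 570 nm; triplicate, mean ± SD.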

For assay [1], the system named is C. difficile. Description: MIC by agar dilution, C. difficile. Format: cell-based, Clostridium difficile. As to the method: A standard broth dilution protocol was used in 96 well microplates containing a standard dilution of the microorganism to be tested in 100 microliters of the appropriate medium. Appropriate medium: E. coli, LB medium; Staphylococcus strains, Trypticase Soy; and for H. pylori and C. jejuni, Brain Heart Infusion. The compounds to be tested were set at 32 μg/ml in 200 microliters in well one and then serially diluted to provide a range from 32 to 0.06. The wells were scored visually at 24 h. The well where there was no growth was recorded as the MIC. […]
(§2) Representative compounds of the invention were tested in a series of assays against a series of organisms as described above. […] The organisms tested include, C. difficile, H. pylori, C. jejuni, MRSA, S. epidermidis, and E. coli. S. epidermidis and E. coli were tested in the plank and biofilm assay. A disk diffusion assay was also used for C. difficile. Direct PFOR enzyme assays were also performed. All analogues and derivatives were not tested on every organism in every type of assay (the “-” in each table means that it was not tested).

Assay [2] has as its system C. difficile. Description: Disk diffusion (Kirby Bower), C. difficile. In kind it is cell-based, Clostridium difficile. The settings on record: for Disk Diff (%) C. difficile: Nitazoxanide = 100, Thiophene analogues table; for Disk Diffusion (%) C. difficile: zone of inhibited growth as relative ratio to the zone for NTZ. Put shortly:
as §1
(In general: A growth-free zone around the sample is the usual read-out of agar diffusion tests.)

The subject of another assay is S. epidermidis biofilm. Put plainly: S. epidermidis biofilm assay (activity tables). In kind it is cell-based, Staphylococcus epidermidis. Particulars: for MIC S. epidermidis Biofilm: Thiophene analogues table. Put shortly:
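Overnight TSB cultures diluted to OD600 0.01 and grown static with compound (triplicate) at 37° C for 16 h; turbidity recorded for growth. Biofilm: washed wells ethanol-fixed, stained with 0.5% crystal violet, A570 read before and after 95% ethanol extraction; mean ± SD.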

In assay [3] the test system is PFOR (pyruvate ferredoxin oxidoreductase). Put plainly: Direct PFOR enzyme assay. In kind it is biochemical. On the procedure:
as §2

Setting [4] is: Thiophene analogues table, read-out: MIC MRSA.
[5] abbreviates: Thiophene analogues table, read-out: MIC C. jejuni.
[6] abbreviates: planktonic, Thiophene analogues table, read-out: MIC S. epidermidis Plank.
Setting [7] is: Thiophene analogues table, read-out: MIC H. pylori.
[8] abbreviates: planktonic, Thiophene analogues table, read-out: MIC E. coli Plank.
The mark [9] stands for this setting: biofilm, Thiophene analogues table, read-out: MIC E. coli Biofilm.
Where [10] appears, read: Thiophene analogues table, read-out: MIC C. difficile.
Setting [11] is: Staphylococcus aureus, MRSA, Thiophene analogues table, read-out: MIC MRSA.
Where [12] appears, read: Campylobacter jejuni, Thiophene analogues table, read-out: MIC C. jejuni.
[13] abbreviates: Helicobacter pylori, Thiophene analogues table, read-out: MIC H. pylori.
Where [14] appears, read: Escherichia coli, planktonic, Thiophene analogues table, read-out: MIC E. coli Plank.
Setting [15] is: Escherichia coli, biofilm, Thiophene analogues table, read-out: MIC E. coli Biofilm.
Setting [16] is: Clostridioides difficile, Thiophene analogues table, read-out: MIC C. difficile.

With `O=C(Nc1ncc([N+](=O)[O-])s1)c1cc2ccccc2s1` [VPC161180], the MIC came to 6.6 µM (≈ 2.02 µg/mL) with MRSA (setting [4]); 9.8 µM (≈ 2.99 µg/mL) with C. jejuni (setting [5]); 13.1 µM (≈ 4 µg/mL) in the assay on S. epidermidis (setting [6]); 2.5 µM (≈ 0.763 µg/mL) with H. pylori (setting [7]); 104.8 µM (≈ 32 µg/mL) in the assay on E. coli (setting [8]); 104.8 µM (≈ 32 µg/mL) in the assay on E. coli biofilm (setting [9]). Besides, the MIC with C. difficile [1] (setting [10]) was 13.1 µM (≈ 4 µg/mL). Moreover, the “Disk Diff (%) C. difficile” value in the assay on C. difficile [2] is 81%. The “MIC S. epidermidis Biofilm” value against S. epidermidis biofilm came to 19.7 µM (≈ 6.02 µg/mL).
For `O=C(Nc1ncc([N+](=O)[O-])s1)c1sc2ccccc2c1Cl` [VPC161181], the MIC in the assay on MRSA (setting [11]) amounted to 2.9 µM (≈ 0.985 µg/mL); with C. jejuni (setting [12]), 5.9 µM (≈ 2 µg/mL); with S. epidermidis (Staphylococcus epidermidis, planktonic, Thiophene analogues table, read-out: MIC S. epidermidis Plank) it was 5.9 µM (≈ 2 µg/mL); in the assay with H. pylori (setting [13]) it was 2.2 µM (≈ 0.748 µg/mL); with E. coli (setting [14]) it was 94.2 µM (≈ 32 µg/mL); with E. coli biofilm (setting [15]) it was 94.2 µM (≈ 32 µg/mL). Moreover, in the assay with C. difficile [1] (setting [16]), the MIC is 11.8 µM (≈ 4.01 µg/mL). In the assay on C. difficile [2], the “Disk Diff (%) C. difficile” value is reported as 72%. Moreover, the “MIC S. epidermidis Biofilm” value in the assay with S. epidermidis biofilm amounted to 11.8 µM (≈ 4.01 µg/mL).
For the compound `O=C(Nc1ncc([N+](=O)[O-])s1)c1cccc(C(F)(F)F)c1` [VPC161183, N-(5-Nitrothiazol-2-yl)-3-(trifluoromethyl)benzamide], the “PFOR inhibition relative to nitazoxanide (=100)” value in [3] is recorded as 87%. The MIC in the assay on MRSA (Staphylococcus aureus, MRSA, 24 h, read-out: MIC (μM) MRSA) was 3.2 µM (≈ 1.02 µg/mL); in the assay on C. jejuni (Campylobacter jejuni, 24 h, read-out: MIC (μM) C. jejuni) it was 4.7 µM (≈ 1.49 µg/mL); in the assay on H. pylori (Helicobacter pylori, 24 h, read-out: MIC (μM) H. pylori), 3.5 µM (≈ 1.11 µg/mL); in the assay with E. coli (Escherichia coli, 24 h, read-out: MIC (μM) E. coli Plank), 37.8 µM (≈ 12 µg/mL); in the assay with E. coli biofilm (Escherichia coli, read-out: MIC (μM) E. coli Biofilm), 31.5 µM (≈ 9.99 µg/mL); in the assay with C. difficile [1] (Clostridioides difficile, read-out: MIC (μM) C. difficile) it was 12.6 µM (≈ 4 µg/mL). Besides, the “Disk Diffusion (%) C. difficile” value with C. difficile [2] is 95 ± 2%. Also, in the assay with S. epidermidis biofilm, the “MIC (μM) S. epidermidis Biofilm” value came out at 25.2 µM (≈ 7.99 µg/mL).
`COc1cccc(C(=O)Nc2ncc([N+](=O)[O-])s2)c1` [VPC161193]: in assay [3], the “PFOR inhibition relative to nitazoxanide (=100)” value is recorded as 82%. Also, the MIC in the assay on MRSA (broth dilution, Trypticase Soy, 24 h, read-out: MIC (μM) MRSA) turned out to be 14.3 µM (≈ 3.99 µg/mL); with C. jejuni (broth dilution, Brain Heart Infusion, 24 h, read-out: MIC (μM) C. jejuni) it was 7.2 µM (≈ 2.01 µg/mL); with S. epidermidis (broth dilution, Trypticase Soy, 24 h, read-out: MIC (μM) S. epidermidis Plank), 28.6 µM (≈ 7.99 µg/mL); with H. pylori (broth dilution, Brain Heart Infusion, 24 h, read-out: MIC (μM) H. pylori) it was 1.3 µM (≈ 0.363 µg/mL); in the assay with E. coli (broth dilution, LB medium, 24 h, read-out: MIC (μM) E. coli Plank), 114.6 µM (≈ 32 µg/mL); in the assay with E. coli biofilm (biofilm, read-out: MIC (μM) E. coli Biofilm) it was 114.6 µM (≈ 32 µg/mL). Moreover, in the assay with C. difficile [1] (agar dilution, anaerobic, Wilkins Chalgrin agar, read-out: MIC (μM) C. difficile), the MIC worked out at 28.6 µM (≈ 7.99 µg/mL). For the same compound, the “Disk Diffusion (%) C. difficile” value in the assay on C. difficile [2] stood at 73 ± 1%. Moreover, the “MIC (μM) S. epidermidis Biofilm” value in the assay on S. epidermidis biofilm amounted to 57.3 µM (≈ 16 µg/mL).
Take `O=C(Nc1ncc([N+](=O)[O-])s1)c1cccs1` [VPC161195, N-(5-Nitrothiazol-2-yl)thiophene-2-carboxamide]: in assay [3] (Thiophene analogues table), the “PFOR inhibition relative to nitazoxanide (=100)” value is 88%. Moreover, the MIC is 15.7 µM (≈ 4.01 µg/mL) in the assay on MRSA (setting [11]); 2.9 µM (≈ 0.74 µg/mL) in the assay with C. jejuni (setting [12]); 2.9 µM (≈ 0.74 µg/mL) in the assay with H. pylori (setting [13]); 125 µM (≈ 32 µg/mL) with E. coli (setting [14]); 125 µM (≈ 32 µg/mL) with E. coli biofilm (setting [15]); 31.3 µM (≈ 7.99 µg/mL) with C. difficile [1] (setting [16]). Further, the “Disk Diff (%) C. difficile” value in the assay with C. difficile [2] is reported as 97%. Moreover, the “MIC S. epidermidis Biofilm” value against S. epidermidis biofilm is 62.7 µM (≈ 16 µg/mL).
Turning to `O=C(Nc1ncc([N+](=O)[O-])s1)c1cc(Cl)sc1Cl` [VPC161199], the “PFOR inhibition relative to nitazoxanide (=100)” value in assay [3] (Thiophene analogues table) is reported as 48%. Besides, the MIC was 6.2 µM (≈ 2.01 µg/mL) in the assay with MRSA (setting [4]); 2.3 µM (≈ 0.746 µg/mL) in the assay on C. jejuni (setting [5]); 12.3 µM (≈ 3.99 µg/mL) in the assay with S. epidermidis (setting [6]); 1.5 µM (≈ 0.486 µg/mL) with H. pylori (setting [7]); 98.7 µM (≈ 32 µg/mL) in the assay on E. coli (setting [8]); 24.7 µM (≈ 8.01 µg/mL) in the assay on E. coli biofilm (setting [9]). In the assay with C. difficile [1] (setting [10]), the MIC amounted to 12.3 µM (≈ 3.99 µg/mL). Also, the “Disk Diff (%) C. difficile” value in the assay with C. difficile [2] is listed as 89%. In addition, the “MIC S. epidermidis Biofilm” value in the assay with S. epidermidis biofilm stood at 24.7 µM (≈ 8.01 µg/mL).
